Measured values from publication PMC9399069, “Imaging PARP with [^18F]rucaparib in pancreatic cancer models” (European Journal of Nuclear Medicine and Molecular Imaging, 2022).

Assays:
Assay type in all cases: cell-based, human
PSN1 cells [1] = experiment: In vitro uptake and binding selectivity of [18F]rucaparib in PSN1 cells; details: PSN1 cells, unlabelled inhibitor 100 μM for 45 min before [18F]rucaparib (100 nM), further 45 min
Protocol: (§1) AsPC1 (1 × 10^5 cells/well) and PSN1 cells (7.5 × 10^4 cells/well) were seeded separately in 24-well plates (in 300 μL growth medium) and allowed to adhere for at least 20 h. […] To assess [^18F]rucaparib-binding selectivity, unlabelled PARP inhibitors, IMPDH2 or ALDH2 inhibitor, were added (100 μM, in 270 μL growth medium) for 45 min at 37 °C before addition of [^18F]rucaparib (156 kBq, 6.8 GBq/μmol; [^TotalF]rucaparib final concentration: 100 nM), and the cells were incubated at 37 °C for a further 45 min. Cell culture medium was removed, and cells were washed with PBS. Cells were lysed using RIPA buffer for 15 min at room temperature, and the amount of ^18F in the cell lysates was measured using an automated gamma counter (PerkinElmer), normalising for the number of cells.
(§2) Cells were lysed and the amount of ^18F in the cell lysates was measured as above.

AsPC1 cells [2] = experiment: In vitro uptake and binding selectivity of [18F]rucaparib in AsPC1 cells; details: unlabelled inhibitor 100 μM for 45 min before [18F]rucaparib (100 nM), further 45 min
Protocol: as §1, §2

AsPC1 cells [3] = experiment: Protein expression by flow cytometry after PARP inhibitors or DNA-damaging reagents, AsPC1 cells; details: 10 μM, 3 h, flow cytometry
Protocol: (§3) Relative expression of PARP1, 2 and 3, ALDH2 and IMPDH2 was determined by flow cytometry. Cells (1 × 10^6 cells/well) were seeded in 96-well plates in growth medium, washed with FACS buffer (PBS, 2% FBS, 1 mM EDTA, 0.1% NaN3) and centrifuged at 500×g for 5 min. Immunostaining was performed using the Foxp3/transcription factor staining buffer set (eBioscience^TM, USA). Intracellular staining was conducted in permeabilisation buffer for 30 min at 4 °C in the dark using the following antibodies: AF488-conjugated anti-PARP-1 (1:100; sc-80070), AF594-conjugated anti-PARP-2 (1:100; sc-393310), anti-PARP-3 (1:100; sc-390771) or anti-PARP-tankyrase-1/2 (1:100; sc-365897) from Santa Cruz Biotechnology Inc. (USA), AF488-conjugated anti-IMPDH2 (1:500; ab-200770) from Abcam plc. (UK) and AF488-conjugated anti-ALDH2 (1:100, ABIN6817568) from Antibodies-online GmbH (UK). Fixable viability dye ef780 (1:4000; eBioscience^TM; 65-0865-14) was used for live and dead cells discrimination. Fixation of immunostained cells was performed for 15 min at room temperature. Flow cytometry was conducted on the CytoFLEX benchtop flow cytometer (Beckman Coulter, USA), with appropriate lasers and filters, positive and negative controls. Data were analysed using FlowJo^TM (Tree Star Inc., BD Biosciences, USA).
(§4) AsPC1 (1 × 10^5 cells/well) and PSN1 cells (7.5 × 10^4 cells/well) were exposed to methyl methanesulfonate (MMS) or temozolomide (TMZ) (100 μM, in a total of 270 μL growth medium) for 3 h at 37 °C. Additionally, [^18F]rucaparib (500 kBq, 3.6 GBq/μmol; [^TotalF]rucaparib final concentration: 301 nM) or [^18F]olaparib (400 kBq, 8.5 GBq/μmol; [^TotalF]olaparib final concentration: 300 nM) was added, and the cells were incubated at 37 °C for 30 min. Cell culture medium was removed, and cells were washed with PBS. For cell retention, fresh medium (300 μL) was added to the cells. Cells were then further incubated at 37°C for 3 h. Cell culture medium was removed, and the amount of ^18F in the cell lysates was measured as above. Protein expression of the cells after DNA-damaging treatments (or PARP inhibitors 10 μM) was performed using flow cytometry as above.

PSN1 cells [4] = experiment: Protein expression by flow cytometry after PARP inhibitors or DNA-damaging reagents, PSN1 cells; details: 10 μM, 3 h, flow cytometry
Protocol: as §3, §4

Compound: O=c1c(-c2ccc(O)cc2)coc2cc(O[C@@H]3O[C@H](CO)[C@@H](O)[C@H](O)[C@H]3O)ccc12 [daidzin, reference compound]
- Blocking of [18F]rucaparib uptake (PSN1 cells [1]): significantly reduce
- Blocking of [18F]rucaparib uptake (AsPC1 cells [2]): significantly reduce

Compound: COc1c(C)c2c(c(O)c1C/C=C(\C)CCC(=O)OCCN1CCOCC1)C(=O)OC2 [mycophenolate mofetil, reference compound]
- Blocking of [18F]rucaparib uptake (PSN1 cells [1]): significantly reduce
- Blocking of [18F]rucaparib uptake (AsPC1 cells [2]): significantly reduce

Compound: Cn1ncnc1[C@H]1c2n[nH]c(=O)c3cc(F)cc(c23)N[C@@H]1c1ccc(F)cc1 [talazoparib]
- PARP1 expression (MFI) after exposure of PARP inhibitors (AsPC1 cells [3]): upregulated
- PARP1 expression (MFI) after exposure of PARP inhibitors (PSN1 cells [4]): upregulated
